Columns and labels:
carrageenan [1] = test: Carrageenan (CAR) test, paw edema volume by plethysmometer; assay type: in vivo, Wistar male rats; conditions: for effect on the formation of the edema by carrageenan (paw volume): 5 mg/kg orally, alone, 30 minutes to 6 hours after carrageenan (FIG. 2a); for reduction of the volume of the legs after CAR: all time points (FIG. 3a)
Procedure: The carrageenan (CAR) test was performed according to a protocol that provides intra-plantar injection of carrageenan in rats and administration of the active ingredient orally by gavage. This is a standard inflammation test. The 1% (weight/volume) carrageenan solution (Sigma) was prepared in sterile saline and subsequently kept at 37° C. for 1 hour to obtain complete solubilization. The paw edema was induced in Wistar male rats by injecting 200 μl of carrageenan into the plantar aponeurosis of the right hind paw. The increase in size of the treated paw was measured prior to induction and 30 minutes after injection of the inflammatory agent using a plethysmometer (model 7140; Ugo Basile). The subsequent paw size measurements were taken at 60-minute intervals with respect to the first measurement, for a total of 7 measurements. The difference between the values obtained from the treated animals and the control animals was calculated and assessed statistically for all six hours.

carrageenan [2] = test: Carrageenan (CAR) test, hyperalgesic response, paw withdrawal latency (Plantar Test); assay type: in vivo, Wistar male rats; conditions: for lengthening of the retraction time compared to the control: 5 mg/kg, individually administered (FIG. 2b); for increase of latency time after CAR: all time points (FIG. 3b)
Procedure: The carrageenan (CAR) test was performed according to a protocol that provides intra-plantar injection of carrageenan in rats and administration of the active ingredient orally by gavage. This is a standard inflammation test. The 1% (weight/volume) carrageenan solution (Sigma) was prepared in sterile saline and subsequently kept at 37° C. for 1 hour to obtain complete solubilization. The paw edema was induced in Wistar male rats by injecting 200 μl of carrageenan into the plantar aponeurosis of the right hind paw. Hyperalgesic response to heat was measured at various time points (0, 30 min, 1, 2, 3, 4, 5 and 6 h) in accordance with the method described by Hargreaves et al. (Pain, 32 (1988), 77-88) using the Plantar Test 7371 (Ugo Basile, Italy). In short, the animals were allowed to move freely in an open transparent plastic chamber. After a period of acclimatization, a heat source radiating infrared light (IR 60) was placed under the glass floor and concentrated on the hind paw. When the animal felt pain and withdrew its paw, the source was turned off and the time measured was recorded.

sciatic nerve ligation [3] = test: Mechanical allodynia after sciatic nerve ligation (neuropathic pain model), Dynamic Plantar Aesthesiometer; assay type: in vivo, mice of the C57BL/6J strain; conditions: alone
Procedure: The experiments were carried out by using male mice of the C57BL/6J strain with a weight ranging between 25 and 30 g; 10 animals per group were used. The animals were anesthetized with sodium pentobarbital (60 mg/kg, i.p.) and subjected to a surgical procedure of sciatic nerve ligation capable of inducing neuropathic pain in accordance with the method described by Bennet and Xie (1988, Pain; 33:87-107). Sham animals were used as a control. The products were administered p.o. with a tube, suspended in 2% CarboxymethylCellulose. The mechanical allodynia was measured by using the Dynamic Plantar Aesthesiometer equipment of the Company Ugo Basile-Varese, Italy. The values in the table are referred to the weight, expressed in grams, to which the animal object of the experiment, subjected thereto, withdraws its paw when feeling pain.

sciatic nerve ligation [4] = conditions: 100 mg/kg; cited from earlier work
sciatic nerve ligation [5] = conditions: 10 mg/kg; cited from earlier work

## CC(=O)O[C@H](CC(=O)[O-])C[N+](C)(C)C [LAC, L-Acetylcarnitine]
Carrageenan [1]
  effect on the formation of the edema by carrageenan (paw volume): does not have a significant effect
Carrageenan [1]; LAC 3.0 mg/kg oral
  reduction of the volume of the legs after CAR: did not achieve a significant reduction
Carrageenan [1]; LAC 5.0 mg/kg oral
  reduction of the volume of the legs after CAR: did not achieve a significant reduction
Carrageenan [2]
  lengthening of the retraction time compared to the control: do not show any effect
Carrageenan [2]; LAC 3.0 mg/kg oral
  increase of latency time after CAR: did not achieve a significant increase
Carrageenan [2]; LAC 5.0 mg/kg oral
  increase of latency time after CAR: did not achieve a significant increase
Sciatic nerve ligation [3]; 10 mg/kg p.o.
  alleviation of the neuropathic pain (mechanical allodynia): do not cause a significant activity
Sciatic nerve ligation [3]; 100 mg/kg p.o.
  alleviation of the neuropathic pain (mechanical allodynia): significant alleviation
Sciatic nerve ligation [4]
  mechanical allodynia: decrease the mechanical allodynia

## CCCCCCCCCCCCCCCC(=O)NCCO [PEA-um, palmitoylethanolamide]
Sciatic nerve ligation [3]; 5 mg/kg p.o.
  alleviation of the neuropathic pain (mechanical allodynia): do not cause a significant activity
Sciatic nerve ligation [3]; 10 mg/kg p.o.
  alleviation of the neuropathic pain (mechanical allodynia): significant alleviation

## CCCCCCCCCCCCCCCC(=O)NCCO [palmitoylethanolamide]
Sciatic nerve ligation [5]
  effect in the neuropathic pain model: particularly relevant effect

## CCCCCCCCCCCCCCCC(=O)NCCO [PEA-m, palmitoylethanolamide]
Carrageenan [1]
  effect on the formation of the edema by carrageenan (paw volume): does not have a significant effect
Carrageenan [2]
  lengthening of the retraction time compared to the control: do not show any effect
